Measurements reported in patent US9828413B2, “Vancomycin derivative, and preparation method and application thereof” (ACESYS PHARMA INC., priority 2013, dated 2017).
≈ marks a conversion by molar mass, not a printed value. Read-outs that look alike come from different tables or passages of the source.

Legend:
[1] = system: Staphylococcus aureus Mu50; experiment: In vitro activity assay, minimum inhibitory concentration (MIC), cup-plate method; format: cell-based
Method: (§1) In vitro activity assay was performed according to Microbiological Identification of Antibiotics, Appendix XIA, Volume II, Chinese Pharmacopoeia 2010. Vancomycin-sensitive Staphylococcus aureus strains (Newman and Mu 50) were selected as the test strains, and trypticase soy broth was selected as the culture medium.

[2] = system: Staphylococcus aureus Newman; experiment: as above; format: cell-based; conditions: read-out: MIC values, Staphylococcus aureus Newman
Method: as §1

physchem = conditions: 25 °C, water, thermodynamic from solid
[3] = Solubility test of compounds in water; conditions: 25 °C, thermodynamic from solid
[4] = strain Mu50, trypticase soy broth, read-out: MIC values, Staphylococcus aureus Mu50
[5] = strain Newman, trypticase soy broth

MIC [1, 4] [µg/mL] | MIC [2, 5] [µg/mL] | solubility at 30 min (physchem) [mg/mL] | SMILES | MIC ([1]; MU50, read-out: MIC values, Staphylococcus aureus Mu50) [µg/mL] | MIC ([2]; NEWMAN) [µg/mL] | solubility at 30 min [3] [mg/mL]
16 (≈ 10.1 µM) | 4 (≈ 2.53 µM) | 4 (≈ 2530 µM) | CCCOC(CNC1(C)CC(OC2C(Oc3c4cc5cc3Oc3ccc(cc3Cl)[C@@H](O)[C@@H]3NC(=O)C(NC(=O)[C@@H]5NC(=O)[C@H](CC(N)=O)NC(=O)C(NC(=O)[C@@H](CC(C)C)NC)[C@H](O)c5ccc(c(Cl)c5)O4)c4ccc(O)c(c4)-c4c(O)cc(O)cc4[C@H](C(=O)O)NC3=O)OC(CO)C(O)C2O)OC(C)C1O)C(=O)O (stereo partly drawn) [Compound V30] |  |  | 
32 (≈ 19.7 µM) | 8 (≈ 4.92 µM) | 50 to 60 (≈ 30700 to 36900 µM) | CN[C@H](CC(C)C)C(=O)NC1C(=O)N[C@@H](CC(N)=O)C(=O)N[C@H]2C(=O)NC3C(=O)N[C@H](C(=O)N[C@@H](C(=O)O)c4cc(O)cc(O)c4-c4cc3ccc4O)[C@H](O)c3ccc(c(Cl)c3)Oc3cc2cc(c3OC2OC(CO)C(O)C(O)C2OC2CC(C)(NCC(OCc3ccccc3)C(=O)O)C(O)C(C)O2)Oc2ccc(cc2Cl)[C@H]1O (stereo partly drawn) [Compound V11] |  |  | 
2 (≈ 1.15 µM) | < 0.125 | 3 (≈ 1730 µM) | COC(=O)C(CNC1(C)CC(OC2C(Oc3c4cc5cc3Oc3ccc(cc3Cl)[C@@H](O)[C@@H]3NC(=O)C(NC(=O)[C@@H]5NC(=O)[C@H](CC(N)=O)NC(=O)C(NC(=O)[C@H](N)CC(C)C)[C@H](O)c5ccc(c(Cl)c5)O4)c4ccc(O)c(c4)-c4c(O)cc(O)cc4[C@H](C(=O)O)NC3=O)OC(CO)C(O)C2O)OC(C)C1O)OCc1ccc(-c2ccc(Cl)cc2)cc1 (stereo partly drawn) [Compound V55] |  |  | 
4 (≈ 2.38 µM) | 2 (≈ 1.19 µM) | 5 to 10 (≈ 2980 to 5960 µM) | CCCCCCCCCCOC(CNC1(C)CC(OC2C(Oc3c4cc5cc3Oc3ccc(cc3Cl)[C@@H](O)[C@@H]3NC(=O)C(NC(=O)C5NC(=O)C(CC(N)=O)NC(=O)[C@@H](NC(=O)[C@@H](CC(C)C)NC)C(O)c5ccc(c(Cl)c5)O4)c4ccc(O)c(c4)-c4c(O)cc(O)cc4C(C(=O)O)NC3=O)OC(CO)C(O)C2O)OC(C)C1O)C(=O)O (stereo partly drawn) [Compound V67] |  |  | 
8 (≈ 4.87 µM) | 2 (≈ 1.22 µM) | > 8 | CN[C@H](CC(C)C)C(=O)NC1C(=O)N[C@@H](CC(N)=O)C(=O)N[C@H]2C(=O)NC3C(=O)N[C@H](C(=O)N[C@@H](C(=O)O)c4cc(O)cc(O)c4-c4cc3ccc4O)[C@H](O)c3ccc(c(Cl)c3)Oc3cc2cc(c3OC2OC(CO)C(O)C(O)C2OC2CC(C)(NCC(OCc3ccc(C)cc3)C(=O)O)C(O)C(C)O2)Oc2ccc(cc2Cl)[C@H]1O (stereo partly drawn) [Compound V23] |  |  | 
2 (≈ 1.16 µM) | < 0.125 | 15 to 20 (≈ 8700 to 11600 µM) | CC(C)C[C@@H](N)C(=O)NC1C(=O)N[C@@H](CC(N)=O)C(=O)N[C@H]2C(=O)NC3C(=O)N[C@H](C(=O)N[C@@H](C(=O)O)c4cc(O)cc(O)c4-c4cc3ccc4O)[C@H](O)c3ccc(c(Cl)c3)Oc3cc2cc(c3OC2OC(CO)C(O)C(O)C2OC2CC(C)(NCC(OCc3ccc(-c4ccc(Cl)cc4)cc3)C(=O)O)C(O)C(C)O2)Oc2ccc(cc2Cl)[C@H]1O (stereo partly drawn) [Compound V54] |  |  | 
8 (≈ 4.83 µM) | 2 (≈ 1.21 µM) | < 5 | CN[C@H](CC(C)C)C(=O)N[C@@H]1C(=O)NC(CC(N)=O)C(=O)NC2C(=O)NC3C(=O)N[C@H](C(=O)NC(C(=O)O)c4cc(O)cc(O)c4-c4cc3ccc4O)[C@H](O)c3ccc(c(Cl)c3)Oc3cc2cc(c3OC2OC(CO)C(O)C(O)C2OC2CC(C)(NCC(OCc3ccc(C)cc3)C(=O)OC)C(O)C(C)O2)Oc2ccc(cc2Cl)C1O (stereo partly drawn) [Compound V22] |  |  | 
2 (≈ 1.07 µM) | < 0.125 | 5 to 20 (≈ 2680 to 10700 µM) | CC(C)C[C@@H](N)C(=O)N[C@@H]1C(=O)NC(CC(N)=O)C(=O)NC2C(=O)NC3C(=O)N[C@H](C(=O)NC(C(=O)O)c4cc(O)cc(O)c4-c4cc3ccc4O)[C@H](OC3CC(C)(N)C(O)C(C)O3)c3ccc(c(Cl)c3)Oc3cc2cc(c3OC2OC(CO)C(O)C(O)C2OC2CC(C)(NCC(OCc3ccc(-c4ccc(Cl)cc4)cc3)C(=O)O)C(O)C(C)O2)Oc2ccc(cc2Cl)C1O (stereo partly drawn) [Compound V66] |  |  | 
32 (≈ 19.8 µM) | 8 (≈ 4.96 µM) | 20 (≈ 12400 µM) | CC(C)C[C@@H](N)C(=O)N[C@@H]1C(=O)NC(CC(N)=O)C(=O)NC2C(=O)NC3C(=O)N[C@H](C(=O)NC(C(=O)O)c4cc(O)cc(O)c4-c4cc3ccc4O)[C@H](O)c3ccc(c(Cl)c3)Oc3cc2cc(c3OC2OC(CO)C(O)C(O)C2OC2CC(C)(NCC(OCc3ccccc3)C(=O)O)C(O)C(C)O2)Oc2ccc(cc2Cl)C1O (stereo partly drawn) [Compound V51] |  |  | 
2 (≈ 1.2 µM) | < 0.125 | > 8 | CN[C@H](CC(C)C)C(=O)N[C@@H]1C(=O)NC(CC(N)=O)C(=O)NC2C(=O)NC3C(=O)N[C@H](C(=O)NC(C(=O)O)c4cc(O)cc(O)c4-c4cc3ccc4O)[C@H](O)c3ccc(c(Cl)c3)Oc3cc2cc(c3OC2OC(CO)C(O)C(O)C2OC2CC(C)(NCC(OCc3ccc(Cl)cc3)C(=O)O)C(O)C(C)O2)Oc2ccc(cc2Cl)C1O (stereo partly drawn) [Compound V21] |  |  | 
64 (≈ 41.3 µM) | 16 (≈ 10.3 µM) | 20 (≈ 12900 µM) | CN[C@H](CC(C)C)C(=O)NC1C(=O)N[C@@H](CC(N)=O)C(=O)N[C@H]2C(=O)NC3C(=O)N[C@H](C(=O)N[C@@H](C(=O)O)c4cc(O)cc(O)c4-c4cc3ccc4O)[C@H](O)c3ccc(c(Cl)c3)Oc3cc2cc(c3OC2OC(CO)C(O)C(O)C2OC2CC(C)(NCC(OC)C(=O)O)C(O)C(C)O2)Oc2ccc(cc2Cl)[C@H]1O (stereo partly drawn) [Compound V27] |  |  | 
> 128 | 64 (≈ 40.2 µM) | 50 to 60 (≈ 31400 to 37700 µM) | CCCCOC(CNC1(C)CC(OC2C(Oc3c4cc5cc3Oc3ccc(cc3Cl)[C@@H](O)[C@@H]3NC(=O)C(NC(=O)[C@@H]5NC(=O)[C@H](CC(N)=O)NC(=O)C(NC(=O)[C@@H](CC(C)C)NC)[C@H](O)c5ccc(c(Cl)c5)O4)c4ccc(O)c(c4)-c4c(O)cc(O)cc4[C@H](C(=O)O)NC3=O)OC(CO)C(O)C2O)OC(C)C1O)C(=O)O (stereo partly drawn) [Compound V19] |  |  | 
8 (≈ 4.43 µM) | 4 (≈ 2.22 µM) | 5 to 20 (≈ 2770 to 11100 µM) | CN[C@H](CC(C)C)C(=O)N[C@@H]1C(=O)NC(CC(N)=O)C(=O)NC2C(=O)NC3C(=O)N[C@H](C(=O)NC(C(=O)O)c4cc(O)cc(O)c4-c4cc3ccc4O)[C@H](OC3CC(C)(N)C(O)C(C)O3)c3ccc(c(Cl)c3)Oc3cc2cc(c3OC2OC(CO)C(O)C(O)C2OC2CC(C)(NCC(OCc3ccc(Cl)cc3)C(=O)O)C(O)C(C)O2)Oc2ccc(cc2Cl)C1O (stereo partly drawn) [Compound V62] |  |  | 
8 (≈ 4.39 µM) | 2 (≈ 1.1 µM) | 5 to 10 (≈ 2750 to 5490 µM) | CCCCCCCCCCOC(CNC1(C)CC(OC2C(Oc3c4cc5cc3Oc3ccc(cc3Cl)[C@@H](OC3CC(C)(N)C(O)C(C)O3)[C@@H]3NC(=O)C(NC(=O)C5NC(=O)C(CC(N)=O)NC(=O)[C@@H](NC(=O)[C@@H](CC(C)C)NC)C(O)c5ccc(c(Cl)c5)O4)c4ccc(O)c(c4)-c4c(O)cc(O)cc4C(C(=O)O)NC3=O)OC(CO)C(O)C2O)OC(C)C1O)C(=O)O (stereo partly drawn) [Compound V69] |  |  | 
64 (≈ 40.5 µM) | 16 (≈ 10.1 µM) | 5 (≈ 3170 µM) | CCOC(CNC1(C)CC(OC2C(Oc3c4cc5cc3Oc3ccc(cc3Cl)[C@@H](O)[C@@H]3NC(=O)C(NC(=O)C5NC(=O)C(CC(N)=O)NC(=O)[C@@H](NC(=O)[C@@H](CC(C)C)NC)C(O)c5ccc(c(Cl)c5)O4)c4ccc(O)c(c4)-c4c(O)cc(O)cc4C(C(=O)O)NC3=O)OC(CO)C(O)C2O)OC(C)C1O)C(=O)OC (stereo partly drawn) [Compound V33] |  |  | 
 |  |  | CN[C@H](CC(C)C)C(=O)N[C@H]1C(=O)N[C@@H](CC(N)=O)C(=O)N[C@H]2C(=O)N[C@H]3C(=O)N[C@H](C(=O)N[C@H](C(=O)O)c4cc(O)cc(O)c4-c4cc3ccc4O)[C@H](O)c3ccc(c(Cl)c3)Oc3cc2cc(c3O[C@@H]2O[C@H](CO)[C@@H](O)[C@H](O)[C@H]2O[C@H]2C[C@](C)(N)[C@H](O)[C@H](C)O2)Oc2ccc(cc2Cl)[C@H]1O [Vancomycin] | 8 (≈ 5.52 µM) | 2 (≈ 1.38 µM) | ≥ 100
2 (≈ 1.2 µM) | < 0.125 | 20 (≈ 12000 µM) | COC(=O)C(CNC1(C)CC(OC2C(Oc3c4cc5cc3Oc3ccc(cc3Cl)[C@@H](O)[C@@H]3NC(=O)C(NC(=O)C5NC(=O)C(CC(N)=O)NC(=O)[C@@H](NC(=O)[C@H](N)CC(C)C)C(O)c5ccc(c(Cl)c5)O4)c4ccc(O)c(c4)-c4c(O)cc(O)cc4C(C(=O)O)NC3=O)OC(CO)C(O)C2O)OC(C)C1O)OCc1ccc(Cl)cc1 (stereo partly drawn) [Compound V52] |  |  | 
64 (≈ 39.8 µM) | 16 (≈ 9.95 µM) | ≥ 60 | CCCCOC(CNC1(C)CC(OC2C(Oc3c4cc5cc3Oc3ccc(cc3Cl)[C@@H](O)[C@@H]3NC(=O)C(NC(=O)C5NC(=O)C(CC(N)=O)NC(=O)[C@@H](NC(=O)[C@@H](CC(C)C)NC)C(O)c5ccc(c(Cl)c5)O4)c4ccc(O)c(c4)-c4c(O)cc(O)cc4C(C(=O)O)NC3=O)OC(CO)C(O)C2O)OC(C)C1O)C(=O)OC (stereo partly drawn) [Compound V16] |  |  | 
16 (≈ 10.2 µM) | 4 (≈ 2.56 µM) | > 60 | CCCOC(CNC1(C)CC(OC2C(Oc3c4cc5cc3Oc3ccc(cc3Cl)[C@@H](O)[C@@H]3NC(=O)C(NC(=O)C5NC(=O)C(CC(N)=O)NC(=O)[C@@H](NC(=O)[C@H](N)CC(C)C)C(O)c5ccc(c(Cl)c5)O4)c4ccc(O)c(c4)-c4c(O)cc(O)cc4C(C(=O)O)NC3=O)OC(CO)C(O)C2O)OC(C)C1O)C(=O)O (stereo partly drawn) [Compound V57] |  |  | 
8 (≈ 4.93 µM) | 2 (≈ 1.23 µM) | 50 to 60 (≈ 30800 to 37000 µM) | CCCCCCOC(CNC1(C)CC(OC2C(Oc3c4cc5cc3Oc3ccc(cc3Cl)[C@@H](O)[C@@H]3NC(=O)C(NC(=O)[C@@H]5NC(=O)[C@H](CC(N)=O)NC(=O)C(NC(=O)[C@@H](CC(C)C)NC)[C@H](O)c5ccc(c(Cl)c5)O4)c4ccc(O)c(c4)-c4c(O)cc(O)cc4[C@H](C(=O)O)NC3=O)OC(CO)C(O)C2O)OC(C)C1O)C(=O)O (stereo partly drawn) [Compound V32] |  |  | 
2 (≈ 1.06 µM) | < 0.125 | 5 to 20 (≈ 2660 to 10600 µM) | CN[C@H](CC(C)C)C(=O)N[C@@H]1C(=O)NC(CC(N)=O)C(=O)NC2C(=O)NC3C(=O)N[C@H](C(=O)NC(C(=O)O)c4cc(O)cc(O)c4-c4cc3ccc4O)[C@H](OC3CC(C)(N)C(O)C(C)O3)c3ccc(c(Cl)c3)Oc3cc2cc(c3OC2OC(CO)C(O)C(O)C2OC2CC(C)(NCC(OCc3ccc(-c4ccccc4Cl)cc3)C(=O)O)C(O)C(C)O2)Oc2ccc(cc2Cl)C1O (stereo partly drawn) [Compound V64] |  |  | 
